Experimental data taken from US20210045385A1, “PYRIDAZINONE-SUBSTITUTED KETOXIMES AS HERBICIDES” (FMC Corporation, priority 2018, published 2021).

Columns and labels:
Type in all cases: in vivo
[1] = tested on: Italian ryegrass (Lolium multiflorum); test: Test A preemergence, visual plant response rating; conditions: for Ryegrass, Italian plant response rating: 125 g ai/ha, preemergence, 0 to 100 scale, 0 no effect, 100 complete control; for Ryegrass, Italian plant response rating (0 to 100 scale): 500 g ai/ha Preemergence, approx. 10 days
Procedure, shortened: (§1)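 Greenhouse evaluation, approx. 10 days post-spray. Soil: loam + sand. Postemergence stage: 1–2 leaves, height 2–10 cm. Vehicle: non-phytotoxic solvent blend with surfactant. Score: visual injury on a 0 (no effect) to 100 (complete control) scale.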

[2] = tested on: barnyardgrass (Echinochloa crus-galli); test: Test A preemergence, visual plant response rating; conditions: for Barnyardgrass plant response rating: 125 g ai/ha, preemergence, 0 to 100 scale, 0 no effect, 100 complete control; for Barnyardgrass plant response rating (0 to 100 scale): 500 g ai/ha Preemergence, approx. 10 days
Procedure, shortened: as §1

[3] = tested on: foxtail, giant (giant foxtail, Setaria faberii); test: Test A preemergence, visual plant response rating; conditions: for Foxtail, Giant plant response rating: 125 g ai/ha, preemergence, 0 to 100 scale, 0 no effect, 100 complete control; for Foxtail, Giant plant response rating (0 to 100 scale): 500 g ai/ha Preemergence, approx. 10 days
Procedure, shortened: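 Preemergence: seeds in loam/sand blend given directed soil spray of compound in non-phytotoxic solvent with surfactant. Postemergence: plants 2–10 cm, one- to two-leaf stage, sprayed with same formulation. Visual injury rated vs untreated controls after ~10 days in greenhouse, 0 (no effect) to 100 (complete control).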

kochia (Kochia scoparia) [4] = test: Test A preemergence, visual plant response rating; conditions: for Kochia plant response rating: 125 g ai/ha, preemergence, 0 to 100 scale, 0 no effect, 100 complete control; for Kochia plant response rating (0 to 100 scale): 500 g ai/ha Preemergence, approx. 10 days
Procedure, shortened: as §1

[5] = tested on: pigweed (Amaranthus retroflexus); test: Test A preemergence, visual plant response rating; conditions: for Pigweed plant response rating: 125 g ai/ha, preemergence, 0 to 100 scale, 0 no effect, 100 complete control; for Pigweed plant response rating (0 to 100 scale): 500 g ai/ha Preemergence, approx. 10 days
Procedure, shortened: as §1

[6] = tested on: ragweed (common ragweed, Ambrosia elatior); test: Test A preemergence, visual plant response rating; conditions: for Ragweed plant response rating: 125 g ai/ha, preemergence, 0 to 100 scale, 0 no effect, 100 complete control; for Ragweed plant response rating (0 to 100 scale): 500 g ai/ha Preemergence, approx. 10 days
Procedure, shortened: as §1

[7] = tested on: Italian ryegrass (Lolium multiflorum); test: Test A postemergence, visual plant response rating; conditions: for Ryegrass, Italian plant response rating (0 to 100 scale): 500 g ai/ha, postemergence, 0 is no effect, 100 is complete control; for Ryegrass, Italian plant response rating: Postemergence, 125 g ai/ha, 0 to 100 scale (0 no effect, 100 complete control)
Procedure, shortened: as §1

[8] = tested on: barnyardgrass (Echinochloa crus-galli); test: Test A postemergence, visual plant response rating; conditions: for Barnyardgrass plant response rating (0 to 100 scale): 500 g ai/ha, postemergence, 0 is no effect, 100 is complete control; for Barnyardgrass plant response rating: Postemergence, 125 g ai/ha, 0 to 100 scale (0 no effect, 100 complete control)
Procedure, shortened: as §1

[9] = tested on: blackgrass (Alopecurus myosuroides); test: Test A postemergence, visual plant response rating; conditions: for Blackgrass plant response rating (0 to 100 scale): 500 g ai/ha, postemergence, 0 is no effect, 100 is complete control; for Blackgrass plant response rating: Postemergence, 125 g ai/ha, 0 to 100 scale (0 no effect, 100 complete control)
Procedure, shortened: as §1

corn (Zea mays) = test: Test A postemergence, visual plant response rating; conditions: for Corn plant response rating (0 to 100 scale): 500 g ai/ha, postemergence, 0 is no effect, 100 is complete control; for Corn plant response rating: Postemergence, 125 g ai/ha, 0 to 100 scale (0 no effect, 100 complete control)
Procedure, shortened: as §1

[10] = tested on: foxtail, giant (giant foxtail, Setaria faberii); test: Test A postemergence, visual plant response rating; conditions: for Foxtail, Giant plant response rating (0 to 100 scale): 500 g ai/ha, postemergence, 0 is no effect, 100 is complete control; for Foxtail, Giant plant response rating: Postemergence, 125 g ai/ha, 0 to 100 scale (0 no effect, 100 complete control)
Procedure, shortened: as §1

[11] = tested on: galium (catchweed bedstraw, Galium aparine); test: Test A postemergence, visual plant response rating; conditions: for Galium plant response rating (0 to 100 scale): 500 g ai/ha, postemergence, 0 is no effect, 100 is complete control; for Galium plant response rating: Postemergence, 125 g ai/ha, 0 to 100 scale (0 no effect, 100 complete control)
Procedure, shortened: as §1

kochia (Kochia scoparia) [12] = test: Test A postemergence, visual plant response rating; conditions: for Kochia plant response rating (0 to 100 scale): 500 g ai/ha, postemergence, 0 is no effect, 100 is complete control; for Kochia plant response rating: Postemergence, 125 g ai/ha, 0 to 100 scale (0 no effect, 100 complete control)
Procedure, shortened: as §1

[13] = tested on: pigweed (Amaranthus retroflexus); test: Test A postemergence, visual plant response rating; conditions: for Pigweed plant response rating (0 to 100 scale): 500 g ai/ha, postemergence, 0 is no effect, 100 is complete control; for Pigweed plant response rating: Postemergence, 125 g ai/ha, 0 to 100 scale (0 no effect, 100 complete control)
Procedure, shortened: as §1

[14] = tested on: ragweed (common ragweed, Ambrosia elatior); test: Test A postemergence, visual plant response rating; conditions: for Ragweed plant response rating (0 to 100 scale): 500 g ai/ha, postemergence, 0 is no effect, 100 is complete control; for Ragweed plant response rating: Postemergence, 125 g ai/ha, 0 to 100 scale (0 no effect, 100 complete control)
Procedure, shortened: as §1

[15] = tested on: wheat (Triticum aestivum); test: Test A postemergence, visual plant response rating; conditions: for Wheat plant response rating (0 to 100 scale): 500 g ai/ha, postemergence, 0 is no effect, 100 is complete control; for Wheat plant response rating: Postemergence, 125 g ai/ha, 0 to 100 scale (0 no effect, 100 complete control)
Procedure, shortened: as §1

[16] = tested on: barnyardgrass (Echinochloa crus-galli); test: Test B flooded paddy test, visual plant response rating; conditions: 250 g ai/ha, Flood, applied to paddy water, 2-leaf stage, evaluated after 13 to 15 days
Procedure, shortened: (§2)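 Visual scores compare treated plants with controls after 13 to 15 days of greenhouse growth. Treatment was made into paddy water standing 3 cm above the soil, with plants at the 2-leaf stage and flooding maintained throughout.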

[17] = tested on: ducksalad (Heteranhera limosa); test: as above; conditions: 250 g ai/ha, Flood, applied to paddy water, 2-leaf stage, evaluated after 13 to 15 days
Procedure, shortened: as §2

rice (Oryza sativa) = test: as above; conditions: 250 g ai/ha, Flood, applied to paddy water, 2-leaf stage, evaluated after 13 to 15 days
Procedure, shortened: as §2

[18] = tested on: sedge, umbrella (small-flower umbrella sedge, Cyperus difformis); test: as above; conditions: 250 g ai/ha, Flood, applied to paddy water, 2-leaf stage, evaluated after 13 to 15 days
Procedure, shortened: as §2

For `CO/N=C(\c1csc(C)c1)c1c(O)c(C)nn(C)c1=O` [Compound 44], the “Ryegrass, Italian plant response rating” value [1] was 0, the “Ryegrass, Italian plant response rating (0 to 100 scale)” value (from here on “Ryegrass … (0 to 100 scale)”) [1] was 50 and the “Barnyardgrass plant response rating” value [2] was 0. The “Barnyardgrass plant response rating (0 to 100 scale)” value [2] was 10, the “Foxtail, Giant plant response rating” value [3] was 0 and the “Foxtail, Giant plant response rating (0 to 100 scale)” value (“Foxtail … (0 to 100 scale)” below) [3] was 10. The “Kochia plant response rating” value (kochia (Kochia scoparia) [4]) was 0, the “Kochia plant response rating (0 to 100 scale)” value (kochia (Kochia scoparia) [4]) was 0 and the “Pigweed plant response rating” value [5] was 0. For the same molecule, the “Pigweed plant response rating (0 to 100 scale)” value [5] was 0, the “Ragweed plant response rating” value [6] was 0 and the “Ragweed plant response rating (0 to 100 scale)” value [6] was 0. The “Ryegrass … (0 to 100 scale)” value [7] was 0, the “Ryegrass, Italian plant response rating” value [7] was 20 and the “Barnyardgrass plant response rating (0 to 100 scale)” value [8] was 30. For the same molecule, the “Barnyardgrass plant response rating” value [8] was 0, the “Blackgrass plant response rating (0 to 100 scale)” value [9] was 30 and the “Blackgrass plant response rating” value [9] was 0. For the same molecule, the “Corn plant response rating (0 to 100 scale)” value (corn (Zea mays)) was 20, the “Corn plant response rating” value (corn (Zea mays)) was 0 and the “Foxtail … (0 to 100 scale)” value [10] was 50. For the same molecule, the “Foxtail, Giant plant response rating” value [10] was 0, the “Galium plant response rating (0 to 100 scale)” value [11] was 50 and the “Galium plant response rating” value [11] was 20. For the same molecule, the “Kochia plant response rating (0 to 100 scale)” value (kochia (Kochia scoparia) [12]) was 0, the “Kochia plant response rating” value (kochia (Kochia scoparia) [12]) was 0 and the “Pigweed plant response rating (0 to 100 scale)” value [13] was 10. The “Pigweed plant response rating” value [13] was 10, the “Ragweed plant response rating (0 to 100 scale)” value [14] was 40 and the “Ragweed plant response rating” value [14] was 0. For the same molecule, the “Wheat plant response rating (0 to 100 scale)” value [15] was 0, the “Wheat plant response rating” value [15] was 0 and the “Plant response rating, Barnyardgrass (0 to 100 scale, 0 is no effect, 100 is complete control)” value [16] was 0. For the same molecule, the “Plant response rating, Ducksalad (0 to 100 scale, 0 is no effect, 100 is complete control)” value [17] was 0, the “Plant response rating, Rice (0 to 100 scale, 0 is no effect, 100 is complete control)” value (rice (Oryza sativa)) was 0 and the “Plant response rating, Sedge, Umbrella (0 to 100 scale, 0 is no effect, 100 is complete control)” value [18] was 0.
For `C#CCON=C(c1c(O)c(C)nn(C)c1=O)c1cc(Br)cc2ccccc12` [Compound 116], the “Ryegrass, Italian plant response rating” value [1] was 100, the “Ryegrass … (0 to 100 scale)” value [1] was 100 and the “Barnyardgrass plant response rating” value [2] was 100. The “Barnyardgrass plant response rating (0 to 100 scale)” value [2] was 100, the “Foxtail, Giant plant response rating” value [3] was 90 and the “Foxtail … (0 to 100 scale)” value [3] was 100. The “Kochia plant response rating” value (kochia (Kochia scoparia) [4]) was 10, the “Kochia plant response rating (0 to 100 scale)” value (kochia (Kochia scoparia) [4]) was 100 and the “Pigweed plant response rating” value [5] was 100. For the same molecule, the “Pigweed plant response rating (0 to 100 scale)” value [5] was 100, the “Ragweed plant response rating” value [6] was 90 and the “Ragweed plant response rating (0 to 100 scale)” value [6] was 90. For the same molecule, the “Ryegrass … (0 to 100 scale)” value [7] was 100, the “Ryegrass, Italian plant response rating” value [7] was 90 and the “Barnyardgrass plant response rating (0 to 100 scale)” value [8] was 90. The “Barnyardgrass plant response rating” value [8] was 90, the “Blackgrass plant response rating (0 to 100 scale)” value [9] was 100 and the “Blackgrass plant response rating” value [9] was 100. The “Corn plant response rating (0 to 100 scale)” value (corn (Zea mays)) was 80, the “Corn plant response rating” value (corn (Zea mays)) was 30 and the “Foxtail … (0 to 100 scale)” value [10] was 90. For the same molecule, the “Foxtail, Giant plant response rating” value [10] was 90, the “Galium plant response rating (0 to 100 scale)” value [11] was 100 and the “Galium plant response rating” value [11] was 100. For the same molecule, the “Kochia plant response rating (0 to 100 scale)” value (kochia (Kochia scoparia) [12]) was 80, the “Kochia plant response rating” value (kochia (Kochia scoparia) [12]) was 60 and the “Pigweed plant response rating (0 to 100 scale)” value [13] was 100. For the same molecule, the “Pigweed plant response rating” value [13] was 90, the “Ragweed plant response rating (0 to 100 scale)” value [14] was 100 and the “Ragweed plant response rating” value [14] was 100. For the same molecule, the “Wheat plant response rating (0 to 100 scale)” value [15] was 60, the “Wheat plant response rating” value [15] was 50 and the “Plant response rating, Barnyardgrass (0 to 100 scale, 0 is no effect, 100 is complete control)” value [16] was 55. The “Plant response rating, Ducksalad (0 to 100 scale, 0 is no effect, 100 is complete control)” value [17] was 60, the “Plant response rating, Rice (0 to 100 scale, 0 is no effect, 100 is complete control)” value (rice (Oryza sativa)) was 5 and the “Plant response rating, Sedge, Umbrella (0 to 100 scale, 0 is no effect, 100 is complete control)” value [18] was 30.
